Laboratory results as given in US20170144985A1, “DIAMINOTRIAZINE COMPOUND USEFUL AS HERBICIDE” (BASF SE, priority 2014, published 2017).

Experiments:
Experiment in all cases: greenhouse pre-emergence herbicidal test
APESV = format: in vivo, Apera spica-venti; conditions: application rate 0.5 kg/ha, scale from 0 to 100, APESV
From the text: (§1) The seeds of the test plants were sown separately for each species. For the pre-emergence treatment, the active ingredients, which had been suspended or emulsified in water, were applied directly after sowing by means of finely distributing nozzles. The containers were irrigated gently to promote germination and growth and subsequently covered with transparent plastic hoods until the plants had rooted. This cover caused uniform germination of the test plants, unless this had been impaired by the active ingredients. Depending on the species, the plants were kept at 10-25° C. or 20-35° C., respectively. The test period extended over 2 to 4 weeks. During this time, the plants were tended, and their response to the individual treatments was evaluated. Evaluation was carried out using a scale from 0 to 100. 100 means no emergence of the plants, or complete destruction of at least the aerial moieties, and 0 means no damage, or normal course of growth. A moderate herbicidal activity is given at values of at least 60, a good herbicidal activity is given at values of at least 70, and a very good herbicidal activity is given at values of at least 85. The plants used in the greenhouse experiments were of the following species: [table]

ALOMY = format: in vivo, Alopecurus myosuroides; conditions: application rate 0.5 kg/ha, scale from 0 to 100, ALOMY
From the text: as §1

AMARE = format: in vivo, Amaranthus retroflexus; conditions: application rate 0.5 kg/ha, scale from 0 to 100, AMARE
From the text: as §1

## Nc1nc(Nc2c(F)c(F)nc(F)c2F)nc(N2CCCC2)n1 [Example 1, 6-pyrrolidin-1-yl-N4-(2,3,5,6-tetrafluoro-4-pyridyl)-1,3,5-triazine-2,4-diamine]
APESV
  herbicidal activity: very good (a very good herbicidal activity is given at values of at least 85)
ALOMY
  herbicidal activity: very good (a very good herbicidal activity is given at values of at least 85)
AMARE
  herbicidal activity: very good (a very good herbicidal activity is given at values of at least 85)
